Experiment: xn = mol fraction of the nth substance listed
Conditions: Gas, Frequency=0.05 MHz, Single path-length method, x2 = 0.058

FC(F)(F)C(F)(F)C(F)(F)F [octafluoropropane] + N#N
Conditions | speed of sound [m/s]
252.62 K, 0.0858 kPa | 109
252.62 K, 0.1039 kPa | 108.4
252.62 K, 0.1203 kPa | 107.8
252.62 K, 0.137 kPa | 107.18
252.62 K, 0.1525 kPa | 106.62
252.62 K, 0.1669 kPa | 106.06
252.62 K, 0.1773 kPa | 105.75
252.62 K, 0.1861 kPa | 105.38
252.62 K, 0.1862 kPa | 105.38
257.71 K, 0.08757 kPa | 110.16
257.71 K, 0.1056 kPa | 109.59
257.71 K, 0.1227 kPa | 109
257.71 K, 0.1398 kPa | 108.4
257.71 K, 0.1558 kPa | 107.86
257.71 K, 0.1702 kPa | 107.33
257.71 K, 0.181 kPa | 107.04
257.71 K, 0.1898 kPa | 106.68
257.71 K, 0.19 kPa | 106.68
257.71 K, 0.2222 kPa | 105.46
257.71 K, 0.2396 kPa | 104.86
257.71 K, 0.2541 kPa | 104.28
257.71 K, 0.2547 kPa | 104.37
262.83 K, 0.08917 kPa | 111.32
262.83 K, 0.1075 kPa | 110.77
262.83 K, 0.125 kPa | 110.2
262.83 K, 0.1429 kPa | 109.63
262.83 K, 0.1589 kPa | 109.12
262.83 K, 0.1737 kPa | 108.6
262.83 K, 0.1844 kPa | 108.31
262.83 K, 0.1937 kPa | 107.97
262.83 K, 0.1942 kPa | 107.97
262.83 K, 0.2273 kPa | 106.8
262.83 K, 0.2449 kPa | 106.21
262.83 K, 0.2605 kPa | 105.64
262.83 K, 0.2771 kPa | 105.01
262.83 K, 0.2894 kPa | 104.6
267.94 K, 0.09058 kPa | 112.46
267.94 K, 0.1095 kPa | 111.93
267.94 K, 0.1273 kPa | 111.39
267.94 K, 0.1462 kPa | 110.83
267.94 K, 0.1619 kPa | 110.33
267.94 K, 0.1773 kPa | 109.83
267.94 K, 0.1883 kPa | 109.56
267.94 K, 0.1978 kPa | 109.24
267.94 K, 0.1983 kPa | 109.23
267.94 K, 0.2324 kPa | 108.11
267.94 K, 0.2503 kPa | 107.55
267.94 K, 0.2663 kPa | 106.99
267.94 K, 0.2836 kPa | 106.41
267.94 K, 0.2966 kPa | 105.98
273.07 K, 0.09281 kPa | 113.6
273.07 K, 0.1111 kPa | 113.09
273.07 K, 0.1299 kPa | 112.57
273.07 K, 0.149 kPa | 112.03
273.07 K, 0.1655 kPa | 111.55
273.07 K, 0.1819 kPa | 111.06
273.07 K, 0.1923 kPa | 110.81
273.07 K, 0.2019 kPa | 110.5
273.07 K, 0.2023 kPa | 110.49
273.07 K, 0.2381 kPa | 109.41
273.07 K, 0.2555 kPa | 108.88
273.07 K, 0.2726 kPa | 108.31
273.07 K, 0.2918 kPa | 107.72
273.07 K, 0.3039 kPa | 107.38
278.15 K, 0.0943 kPa | 114.71
278.15 K, 0.1132 kPa | 114.22
278.15 K, 0.1321 kPa | 113.71
278.15 K, 0.1515 kPa | 113.2
278.15 K, 0.1686 kPa | 112.73
278.15 K, 0.1856 kPa | 112.27
278.15 K, 0.1961 kPa | 112.03
278.15 K, 0.2057 kPa | 111.72
278.15 K, 0.2062 kPa | 111.72
278.15 K, 0.2428 kPa | 110.66
278.15 K, 0.2609 kPa | 110.16
278.15 K, 0.2783 kPa | 109.63
278.15 K, 0.2983 kPa | 109.03
278.15 K, 0.3119 kPa | 108.65
283.2 K, 0.09562 kPa | 115.81
283.2 K, 0.1152 kPa | 115.33
283.2 K, 0.1344 kPa | 114.84
283.2 K, 0.1548 kPa | 114.34
283.2 K, 0.1718 kPa | 113.88
283.2 K, 0.1892 kPa | 113.45
283.2 K, 0.1997 kPa | 113.19
283.2 K, 0.2093 kPa | 112.93
283.2 K, 0.2102 kPa | 112.92
283.2 K, 0.2476 kPa | 111.9
283.2 K, 0.2662 kPa | 111.41
283.2 K, 0.2839 kPa | 110.89
283.2 K, 0.3047 kPa | 110.33
283.2 K, 0.3184 kPa | 109.97
288.26 K, 0.09724 kPa | 116.9
288.26 K, 0.117 kPa | 116.43
288.26 K, 0.1367 kPa | 115.96
288.26 K, 0.1569 kPa | 115.48
288.26 K, 0.175 kPa | 115.05
288.26 K, 0.193 kPa | 114.61
288.26 K, 0.2034 kPa | 114.38
288.26 K, 0.2133 kPa | 114.1
288.26 K, 0.2142 kPa | 114.08
288.26 K, 0.2525 kPa | 113.14
288.26 K, 0.2716 kPa | 112.65
288.26 K, 0.2896 kPa | 112.16
288.26 K, 0.3111 kPa | 111.61
288.26 K, 0.3249 kPa | 111.24
293.32 K, 0.09882 kPa | 117.97
293.32 K, 0.119 kPa | 117.53
293.32 K, 0.1196 kPa | 117.53
293.32 K, 0.139 kPa | 117.08
293.32 K, 0.1393 kPa | 117.06
293.32 K, 0.1596 kPa | 116.59
293.32 K, 0.1599 kPa | 116.61
293.32 K, 0.1779 kPa | 116.19
293.32 K, 0.1782 kPa | 116.19
293.32 K, 0.1958 kPa | 115.78
293.32 K, 0.1967 kPa | 115.77
293.32 K, 0.207 kPa | 115.54
293.32 K, 0.2174 kPa | 115.26
293.32 K, 0.218 kPa | 115.26
293.32 K, 0.2185 kPa | 115.27
293.32 K, 0.2573 kPa | 114.33
293.32 K, 0.2766 kPa | 113.86
293.32 K, 0.2771 kPa | 113.88
293.32 K, 0.2946 kPa | 113.41
293.32 K, 0.2954 kPa | 113.39
293.32 K, 0.3175 kPa | 112.86
293.32 K, 0.3315 kPa | 112.52
298.38 K, 0.1005 kPa | 119.04
298.38 K, 0.121 kPa | 118.61
298.38 K, 0.1413 kPa | 118.17
298.38 K, 0.1627 kPa | 117.7
298.38 K, 0.1814 kPa | 117.31
298.38 K, 0.2001 kPa | 116.91
298.38 K, 0.2106 kPa | 116.69
298.38 K, 0.2213 kPa | 116.42
298.38 K, 0.222 kPa | 116.42
298.38 K, 0.262 kPa | 115.52
298.38 K, 0.282 kPa | 115.07
298.38 K, 0.3011 kPa | 114.61
298.38 K, 0.3239 kPa | 114.1
298.38 K, 0.338 kPa | 113.78
303.42 K, 0.1021 kPa | 120.1
303.42 K, 0.1231 kPa | 119.68
303.42 K, 0.1437 kPa | 119.25
303.42 K, 0.1656 kPa | 118.81
303.42 K, 0.1845 kPa | 118.41
303.42 K, 0.2036 kPa | 118.03
303.42 K, 0.2142 kPa | 117.81
303.42 K, 0.2253 kPa | 117.56
303.42 K, 0.2258 kPa | 117.55
303.42 K, 0.2668 kPa | 116.7
303.42 K, 0.2873 kPa | 116.26
303.42 K, 0.3067 kPa | 115.81
303.42 K, 0.3302 kPa | 115.32
303.42 K, 0.3443 kPa | 114.98
308.47 K, 0.1038 kPa | 121.14
308.47 K, 0.1251 kPa | 120.73
308.47 K, 0.146 kPa | 120.32
308.47 K, 0.1683 kPa | 119.89
308.47 K, 0.1877 kPa | 119.52
308.47 K, 0.207 kPa | 119.14
308.47 K, 0.2178 kPa | 118.93
308.47 K, 0.2293 kPa | 118.7
308.47 K, 0.2297 kPa | 118.68
308.47 K, 0.2717 kPa | 117.84
308.47 K, 0.2924 kPa | 117.42
308.47 K, 0.3124 kPa | 116.99
308.47 K, 0.3365 kPa | 116.51
308.47 K, 0.3509 kPa | 116.21
313.51 K, 0.1052 kPa | 122.18
313.51 K, 0.1271 kPa | 121.79
313.51 K, 0.1483 kPa | 121.39
313.51 K, 0.171 kPa | 120.97
313.51 K, 0.1907 kPa | 120.6
313.51 K, 0.2105 kPa | 120.24
313.51 K, 0.2214 kPa | 120.03
313.51 K, 0.2331 kPa | 119.78
313.51 K, 0.2338 kPa | 119.8
313.51 K, 0.2763 kPa | 118.97
313.51 K, 0.2975 kPa | 118.58
313.51 K, 0.318 kPa | 118.15
313.51 K, 0.3428 kPa | 117.7
313.51 K, 0.3574 kPa | 117.4
318.52 K, 0.1068 kPa | 123.2
318.52 K, 0.1291 kPa | 122.82
318.52 K, 0.1506 kPa | 122.42
318.52 K, 0.1737 kPa | 122.03
318.52 K, 0.1939 kPa | 121.67
318.52 K, 0.2139 kPa | 121.32
318.52 K, 0.2251 kPa | 121.12
318.52 K, 0.2374 kPa | 120.89
318.52 K, 0.2377 kPa | 120.89
318.52 K, 0.2812 kPa | 120.11
318.52 K, 0.3027 kPa | 119.71
318.52 K, 0.3235 kPa | 119.3
318.52 K, 0.349 kPa | 118.86
318.52 K, 0.3638 kPa | 118.57
323.53 K, 0.1085 kPa | 124.22
323.53 K, 0.1312 kPa | 123.85
323.53 K, 0.1531 kPa | 123.46
323.53 K, 0.1766 kPa | 123.09
323.53 K, 0.197 kPa | 122.74
323.53 K, 0.2175 kPa | 122.4
323.53 K, 0.2288 kPa | 122.2
323.53 K, 0.2413 kPa | 121.97
323.53 K, 0.2416 kPa | 121.98
323.53 K, 0.2859 kPa | 121.21
323.53 K, 0.308 kPa | 120.83
323.53 K, 0.3293 kPa | 120.45
323.53 K, 0.3551 kPa | 120.01
323.53 K, 0.3704 kPa | 119.72
